“And” between values parts separate entries of the source, which are not always exact repeats. Equal values may be shown once. Read-outs that look alike come from different tables or passages of the source.
How the values were obtained:
gastro-intestinal tract = conditions: cited from earlier work
ulcer = assay type: in vivo; conditions: several hundred cases, two years
[1] = test system: kaolin-induced edema of the rat's hind paw; experiment: Test for antiphlogistic effect against the kaolin-induced edema of the rat's hind paw; assay type: in vivo, rat (Chbb:THOM); conditions: for ED35: Rattus norvegicus, po, 5 h, kaolin edema; for ED35 / Thickness of the paw (mean): rat; for Thickness of the paw (mean): 5 h after kaolin; for influence on acute anti-exudative (antiphlogistic) effect of non-steroidal antiphlogistics: kaolin-induced edema, simultaneous oral administration
Method: (2) Test for antiphlogistic effect against the kaolin-induced edema of the rat's hind paw (tested substances: A, B, C and D)
The test was carried out on male Chbb:THOM-rats with a body weight between 125 and 150 gm. According to HILLEBRECHT [Arzneimittel-Forsch. 4, 607 (1954)], a subplantary injection of 0.05 ml of a 10% suspension of kaolin in an aqueous 0.85% sodium chloride solution in the hind paw was used for the provocation of the kaolin edema. The other hind paw was subplantarily injected with the same volume of an aqueous 0.85% sodium chloride solution.
The measurement of the thickness of the paws was carried out using the technique of DOEPFNER and […] [Int. Arch. Allergy appl. Immunol. 12, 89 (1958)] by way of the determination of the maximum sagittal diameter, using a measuring device with constant pressure, before and 5 hours after the provocation of the edema.
The test substances (the non-steroidal antiphlogistics or the mixture of non-steroidal antiphlogistics with pirenzepine dihydrochloride) were administered 30 minutes before provocation of the edema as a trituration in 1% tylose (1 ml/[…]) by way of an esophageal tube.
The diameter of the paw measured before the beginning of the test as well as the increase in diameter of the other paw caused by injection were subtracted from the diameter of the kaolin-treated paw, and this difference, being the real swelling value, was used for the further calculations.
(§1) From the swelling values obtained by administration of different dosages of non-steroidal antiphlogistics with or without the addition of pirenzepine dihydrochloride, using a linear regression analysis according to LINDNER [Statistische Methoden, 4th Ed., pages 148-162, Birkhauser, Basel, Switzerland (1964)], the ED35 values of the antiphlogistics were calculated with the confidence limits according to FIELLER [Quart. J. Pharm. Pharmacol. 17, 117 (1944)], the ED35 being the dosage which reduces the swelling of the paws by 35% in comparison to the control animals.

[2] = Test for ulcerogenic effect on the stomach of the rat; assay type: in vivo, rat (Chbb:THOM); conditions: in vivo, po
Method: (§2) (1) Test for ulcerogenic effect on the stomach of the rat
(§3) The test was carried out on male and female (1:1) Chbb:THOM-rats with a body weight between 130 to 150 gm at the beginning of the study.
(§4) The test substances (non-steroidal anti-phlogistics or mixtures of these antiphlogistics with pirenzepine dihydrochloride) were administered as triturations in 1% tylose (1 ml/100 gm animal) by way of an esophageal tube once a day on three successive days.
(§5) Four hours after the last administration (i.e. on the 3rd day) the animals were killed by an over-dose of ether. The stomachs wer dissected, cut along the great curvature and washed under flowing water for subsequent macroscopic evaluation.

stomach of the rat = experiment: as above; assay type: in vivo, rat (Chbb:THOM); conditions: oral, 3 subsequent days
Method: as §2, §3, §4, §5

[3] = test system: carrageenin-induced edema of the hind paw of the rat; experiment: Test for antiphlogistic effect against the carrageenin-induced edema of the hind paw of the rat; assay type: in vivo; conditions: for ED35: Rattus norvegicus, po, 3 h, carrageenin edema; for ED35 / Thickness of the paw (mean): rat; for Thickness of the paw (mean): oral, 3 h after carrageenin; for influence on acute anti-exudative (antiphlogistic) effect of non-steroidal antiphlogistics: carrageenin-induced edema, simultaneous oral administration
Method: The test was carried out in analogy to the above test for the kaolin-induced edema. However, the edema was induced according to the method of WINTER et al. [J. Pharmacol. 141, 369 (1963)] by subplantary injection of 0.05 ml of a 1% solution of carrageenin in an aqueous 0.85% solution of sodium chloride. […] Three hours after the provocation of the edema the measurement which provided the basis for the evaluation of an anti-exudative effect was carried out.
as §1

[4] = clinical, depending upon experience, patients and compound primarily used
[5] = antiphlogistic 50 mgm/kg + A 400 mgm/kg
[6] = antiphlogistic 50 mgm/kg, without A
[7] = antiphlogistic 100 mgm/kg + A 400 mgm/kg
[8] = antiphlogistic 100 mgm/kg, without A
[9] = antiphlogistic 200 mgm/kg, without A
[10] = listed as pirenzepine dihydrochloride, dihydrochloride

COc1ccc2c(c1)c(CC(=O)O)c(C)n2C(=O)c1ccc(Cl)cc1 [B, 1-(4-chloro-benzoyl)-5-methoxy-2-methyl-1H-indole-3-aceticacid]
gastro-intestinal incompatabilities encountered, share of all cases (gastro-intestinal tract; [4]): 25-37%
ulcer rate (ulcer; without pirenzepine dihydrochloride): 37%
ED35 ([1]; with A 100 mgm/kg): 3 mg/kg
ED35 ([1]; without A): 4.3 mg/kg
Thickness of the paw (mean) ([1]; antiphlogistic 1.5 mgm/kg + A 100 mgm/kg, oral): 200.3 10^-2 mm
Thickness of the paw (mean) ([1]; antiphlogistic 1.5 mgm/kg, without A, oral): 214.8 10^-2 mm
Thickness of the paw (mean) ([1]; antiphlogistic 3.0 mgm/kg + A 100 mgm/kg, oral): 178.3 10^-2 mm
Thickness of the paw (mean) ([1]; antiphlogistic 3.0 mgm/kg, without A, oral): 189.0 10^-2 mm
Thickness of the paw (mean) ([1]; antiphlogistic 6.0 mgm/kg + A 100 mgm/kg, oral): 162.9 10^-2 mm
Thickness of the paw (mean) ([1]; antiphlogistic 6.0 mgm/kg, without A, oral): 164.5 10^-2 mm
TD50 ([2]; with A 50 mgm/kg, oral, 3 subsequent days, read-out: ED50-ulcer): 3.3 mg/kg
TD50 ([2]; with A 100 mgm/kg, oral, 3 subsequent days, read-out: ED50-ulcer): 4.9 mg/kg
TD50 ([2]; without A, oral, 3 subsequent days, read-out: ED50-ulcer): 2.55 mg/kg
Ratio of animals with ulcers (stomach of the rat; antiphlogistic 2 mgm/kg, without A): 4/18
Ratio of animals with ulcers (stomach of the rat; antiphlogistic 2.8 mgm/kg + A 50 mgm/kg): 4/16
Ratio of animals with ulcers (stomach of the rat; antiphlogistic 2.8 mgm/kg + A 100 mgm/kg): 4/16
Ratio of animals with ulcers (stomach of the rat; antiphlogistic 2.8 mgm/kg, without A): 11/18
Ratio of animals with ulcers (stomach of the rat; antiphlogistic 4.0 mgm/kg + A 50 mgm/kg): 12/16
Ratio of animals with ulcers (stomach of the rat; antiphlogistic 4.0 mgm/kg + A 100 mgm/kg): 5/15
Ratio of animals with ulcers (stomach of the rat; antiphlogistic 4 mgm/kg, without A): 16/18
Ratio of animals with ulcers (stomach of the rat; antiphlogistic 5.66 mgm/kg + A 50 mgm/kg): 13/15
Ratio of animals with ulcers (stomach of the rat; antiphlogistic 5.66 mgm/kg + A 100 mgm/kg): 8/15
Ratio of animals with ulcers (stomach of the rat; antiphlogistic 8.0 mgm/kg + A 100 mgm/kg): 15/15

CCCCC1C(=O)N(c2ccccc2)N(c2ccccc2)C1=O [G, 4-butyl-1,2-diphenyl-3,5-pyrazolidinedione]
gastro-intestinal incompatabilities encountered, share of all cases (gastro-intestinal tract; human, in vivo): 25-37%
ED35 ([3]; with A 400 mgm/kg): 45.7 mg/kg
ED35 ([3]; without A): 51.7 mg/kg
Thickness of the paw (mean) ([3]; antiphlogistic 25 mgm/kg + A 400 mgm/kg): 205.0 10^-2 mm
Thickness of the paw (mean) ([3]; antiphlogistic 25 mgm/kg, without A): 216.8 10^-2 mm
Thickness of the paw (mean) [3, 5]: 173.5 10^-2 mm
Thickness of the paw (mean) [3, 6]: 175.8 10^-2 mm
Thickness of the paw (mean) [3, 7]: 138.9 10^-2 mm
Thickness of the paw (mean) [3, 8]: 153.8 10^-2 mm
Thickness of the paw (mean) [3, 9]: 125.0 10^-2 mm
TD50 ([2]; ED50-ulcer): 69 mg/kg
Ratio of animals with ulcers (stomach of the rat; antiphlogistic 50 mgm/kg + A 200 mgm/kg): 2/20
Ratio of animals with ulcers (stomach of the rat; [5]): 0/20
Ratio of animals with ulcers (stomach of the rat; [6]): 4/20
Ratio of animals with ulcers (stomach of the rat; antiphlogistic 71 mgm/kg + A 200 mgm/kg): 8/20
Ratio of animals with ulcers (stomach of the rat; antiphlogistic 71 mgm/kg + A 400 mgm/kg): 0/20
Ratio of animals with ulcers (stomach of the rat; antiphlogistic 100 mgm/kg + A 200 mgm/kg): 15/20
Ratio of animals with ulcers (stomach of the rat; [7]): 6/20
Ratio of animals with ulcers (stomach of the rat; [8]): 14/20
Ratio of animals with ulcers (stomach of the rat; antiphlogistic 200 mgm/kg + A 200 mgm/kg): 20/20
Ratio of animals with ulcers (stomach of the rat; antiphlogistic 200 mgm/kg + A 400 mgm/kg): 14/20
Ratio of animals with ulcers (stomach of the rat; [9]): 20/20
Ratio of animals with ulcers (stomach of the rat; antiphlogistic 400 mgm/kg + A 400 mgm/kg): 18/19

CCCC1C(=O)N2C(N(C)C)=Nc3ccc(C)cc3N2C1=O (stereo not drawn) [azapropazone, 5-dimethylamino-9-methyl-2-propyl-1H-pyrazolo[1,2-a][1,2,4]benzotriazine-1,3(2H)-dione]
gastro-intestinal incompatabilities encountered, share of all cases (gastro-intestinal tract; [4]): 25-37%

OCCCCc1ccc(-c2ccccc2)cc1 [D, 4-(4-biphenylyl)-butanol]
ED35 ([1]; with A 100 mgm/kg, oral, read-out: ED35): 12.1 mg/kg
ED35 ([1]; without A, oral, read-out: ED35): 11.2 mg/kg
Thickness of the paw (mean) ([1]; antiphlogistic 6.25 mgm/kg + A 100 mgm/kg, oral): 215.5 10^-2 mm
Thickness of the paw (mean) ([1]; antiphlogistic 6.25 mgm/kg, without A, oral): 214.3 10^-2 mm
Thickness of the paw (mean) ([1]; antiphlogistic 12 mgm/kg + A 100 mgm/kg, oral): 180.4 10^-2 mm
Thickness of the paw (mean) ([1]; antiphlogistic 12 mgm/kg, without A, oral): 165.0 10^-2 mm
Thickness of the paw (mean) ([1]; antiphlogistic 25 mgm/kg + A 100 mgm/kg, oral): 141.0 10^-2 mm
Thickness of the paw (mean) ([1]; antiphlogistic 25 mgm/kg, without A, oral): 124.0 10^-2 mm
TD50 ([2]; ED50-ulcer): 44.5 mg/kg
Ratio of animals with ulcers (stomach of the rat; antiphlogistic 28.1 mgm/kg, without A): 4/17
Ratio of animals with ulcers (stomach of the rat; antiphlogistic 37.5 mgm/kg, without A): 5/17
Ratio of animals with ulcers (stomach of the rat; antiphlogistic 50.0 mgm/kg + A 50 mgm/kg): 1/16
Ratio of animals with ulcers (stomach of the rat; antiphlogistic 50 mgm/kg + A 100 mgm/kg): 2/16
Ratio of animals with ulcers (stomach of the rat; [6]): 9/17
Ratio of animals with ulcers (stomach of the rat; antiphlogistic 67.5 mgm/kg + A 50 mgm/kg): 6/16
Ratio of animals with ulcers (stomach of the rat; antiphlogistic 67.5 mgm/kg + A 100 mgm/kg): 5/15
Ratio of animals with ulcers (stomach of the rat; antiphlogistic 67.5 mgm/kg, without A): 15/17
Ratio of animals with ulcers (stomach of the rat; antiphlogistic 91.1 mgm/kg + A 50 mgm/kg): 11/14
Ratio of animals with ulcers (stomach of the rat; antiphlogistic 91.1 mgm/kg + A 100 mgm/kg): 7/15
Ratio of animals with ulcers (stomach of the rat; antiphlogistic 123.0 mgm/kg + A 50 mgm/kg): 13/14
Ratio of animals with ulcers (stomach of the rat; antiphlogistic 123.0 mgm/kg + A 100 mgm/kg): 10/13

CN1CCN(CC(=O)N2c3ccccc3C(=O)Nc3cccnc32)CC1.Cl.Cl [A, 5,11-dihydro-11-[(4-methyl-1-piperazinyl)-acetyl]-6H-pyrido[2,3-b] [1,4] benzodiazepin-6-one dihydrochloride]
ulcer rate (ulcer; pirenzepine dihydrochloride together with indomethacin): ~0%
Thickness of the paw (mean) ([3]; Controls with A 400 mgm/kg, no antiphlogistic, dihydrochloride): 272.0 10^-2 mm and 271.0 10^-2 mm
influence on acute anti-exudative (antiphlogistic) effect of non-steroidal antiphlogistics ([3]; dihydrochloride): not reduced
influence on acute anti-exudative (antiphlogistic) effect of non-steroidal antiphlogistics [3, 10]: does not lead to a reduction of the acute anti-exudative effect
Thickness of the paw (mean) ([1]; Controls with A 100 mgm/kg, no antiphlogistic, oral, dihydrochloride): 277.5 10^-2 mm and 276.3 10^-2 mm and 278.0 10^-2 mm
influence on acute anti-exudative (antiphlogistic) effect of non-steroidal antiphlogistics ([1]; dihydrochloride): not reduced
influence on acute anti-exudative (antiphlogistic) effect of non-steroidal antiphlogistics [1, 10]: does not lead to a reduction of the acute anti-exudative effect

Reference: US4292319A, “Antiphlogistic pharmaceutical compositions and method of use” (Boehringer Ingelheim GmbH, priority 1977, dated 1981)
